Results from US20090264415A2 (priority 2004, published 2009).
Where two headings read alike, the source gives them in different places.

Test system: peripheral blood mononuclear cells (PBMC) stimulated with allogeneic PBMC or EBV-transformed human B cells (RPMI1788)
Experiment: Mixed lymphocyte reaction (MLR) assay
Type: cell-based
Summary of the method: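 Compounds, held as 10 mM DMSO stocks and diluted in culture medium, were added to PBMC stimulated by 30 Gy-irradiated allogeneic PBMC or RPMI1788 cells. Proliferation was read as [3H]-thymidine uptake (1 μCi, final 16 h) after 5 days at 37° C. Inhibition was derived from cpm.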

[1] = Homo sapiens, RPMI-1788, MLR assay of example 319, read-out: MLR IC50
[2] = 50% suppression of the MLR, [3H]-thymidine incorporation, read-out: MLR

Row | SMILES | IC50 [1] | further results
1 | Cc1cccc(NC(=O)N2CCN(c3nc(C)nc4ccc(-c5ccc(F)cc5)nc34)CC2)c1 [Example 531, 2-methyl-4-[N-(3-methylphenylcarbamoyl)piperazin-1-yl]-6-(4-fluorophenyl)-pyrido[3,2-d]pyrimidine] | 0.084 µM | 
2 | CCCCNC(=O)N1CCN(c2nc(N)nc3ccc(-c4ccc(F)cc4)nc23)CC1 [Example 451, 2-amino-4-[4-(N-butylcarbamoyl)-piperazin-1-yl]-6-(4-fluorophenyl)-pyrido[3,2-d]pyrimidine] | 0.2 µM | 
3 | Nc1nc(N2CCN(C(=O)COc3ccc(Cl)cc3)CC2)c2nc(-c3ccc(F)cc3F)ccc2n1 [Example 423, 2-amino-4-[4-(4-chlorophenoxyacetyl)piperazin-1-yl]-6-(2,4-difluorophenzyl)pyrido-[3,2-d]pyrimidine] | 0.1 µM | 
4 | Nc1nc(N2CCN(C(=O)Oc3ccc(Cl)cc3)CC2)c2nc(-c3ccc(F)cc3)ccc2n1 [Example 469, 2-amino-4-[4-(4-chlorophenoxycarbonyl)piperazin-1-yl]-6-(4-fluorophenyl)-pyrido[3,2-d]pyrimidine] | 0.5 µM | 
5 | CSc1ccc(-c2ccc3nc(N)nc(N4CCN(C(=O)COc5ccc(Cl)cc5)CC4)c3n2)cc1 [Example 495, 2-amino-4-[N-(4-chlorophenoxyacetyl)-piperazin-1-yl]-6-(4-methylthiophenyl)-pyrido(3,2-d)pyrimidine] | 0.022 µM | 
6 | CC(C)(Oc1ccc(Cl)cc1)C(=O)N1CCN(c2nc(N)nc3ccc(-c4ccc(F)cc4)nc23)CC1 [Example 472, 2-amino-4-{4-[2-(4-chlorophenoxy)-2-methylpropionyl]-piperazin-1-yl}-6-(4-fluorophenyl)-pyrido[3,2-d]pyrimidine] | > 10 µM | 
7 | Cc1cccc(NC(=O)N2CCN(c3nc(N)nc4ccc(-c5ccc(C(F)(F)F)cc5)nc34)CC2)c1 [Example 548, 2-amino-4-[(3-methylphenylcarbamoyl)-piperazin-1-yl]-6-(4-trifluoromethylphenyl)-pyrido[3,2-d]pyrimidine] | 0.17 µM | 
8 | Nc1nc(N2CCN(C(=O)COc3ccc(Cl)cc3)CC2)c2nc(-c3cc(Cl)ccc3Cl)ccc2n1 [Example 429, 2-amino-4-[4-(4-chlorophenoxyacetyl)piperazin-1-yl]-6-(2,5-dichlorophenyl)-pyrido-[3,2-d]pyrimidine] | 0.5 µM | 
9 | Cc1cccc(OCC(=O)N2CCN(c3nc(N)nc4ccc(-c5ccc(F)cc5)nc34)CC2)c1 [Example 384, 2-amino-4-[4-(3-methylphenoxyacetyl)piperazin-1-yl]-6-(4-fluorophenyl)-pyrido[3,2-d]pyrimidine] | 0.05 µM | 
10 | COc1cc(-c2ccc3nc(N)nc(N4CCN(C(=O)COc5ccc(Cl)cc5)CC4)c3n2)ccc1OCc1ccccc1 [Example 501, 2-amino-4-[N-(4-chlorophenoxyacetyl)-piperazin-1-yl]-6-(3-methoxy-4-benzyloxyphenyl)-pyrido(3,2-d)pyrimidine] | > 10 µM | 
11 | Nc1nc(N2CCN(C(=O)COc3cccc(Cl)c3)CC2)c2nc(-c3ccc(F)cc3)ccc2n1 [Example 385, 2-amino-4-[4-(3-chlorophenoxyacetyl)piperazin-1-yl]-6-(4-fluorophenyl)-pyrido[3,2-d]pyrimidine] | 0.09 µM | 
12 | CC(C)(C)OC(=O)NCC(=O)N1CCN(c2nc(N)nc3ccc(-c4ccc(F)cc4)nc23)CC1 [Example 434, 2-amino-4-{4-[N-(tert-butoxycarbonyl)-glycyl]-piperazin-1-yl}-6-(4-fluorophenyl)-pyrido[3,2-d]pyrimidine] | 0.093 µM | 
13 | Cc1cc(-c2ccc3nc(N)nc(N4CCN(C(=O)COc5ccc(Cl)cc5)CC4)c3n2)ccc1F [Example 420, 2-amino-4-[4-(4-chlorophenoxyacetyl)piperazin-1-yl]-6-(4-fluoro-3-methylphenyl)-pyrido-[3,2-d]pyrimidine] | 0.3 µM | 
14 | COc1ccc(-c2ccc3nc(N)nc(N)c3n2)cc1OC [Example 256, 2,4-diamino-6-(3,4-dimethoxyphenyl)-pyrido[3,2-d]pyrimidine] |  | IC50 (Homo sapiens, RPMI-1788, 50% suppression of the MLR, [3H]-thymidine incorporation, read-out: MLR): 0.6 µM
15 | Nc1nc(N2CCN(C(=O)COc3ccc(Cl)cc3)CC2)c2nc(-c3cccc(Cl)c3Cl)ccc2n1 [Example 425, 2-amino-4-[4-(4-chlorophenoxyacetyl)piperazin-1-yl]-6-(2,3-dichlorophenyl)-pyrido-[3,2-d]pyrimidine] | 0.3 µM | 
16 | N#Cc1ccc(-c2ccc3nc(N)nc(N4CCN(C(=O)COc5ccc(Cl)cc5)CC4)c3n2)cc1 [Example 400, 2-amino-4-[4-(4-chlorophenoxyacetyl)piperazin-1-yl]-6-(4-cyanophenyl)pyrido-[3,2-d]pyrimidine] | 0.05 µM | 
17 | O=C(Nc1cccc(Cl)c1)N1CCN(c2ncnc3ccc(Cl)nc23)CC1 [Example 70, 4-[(N-3-chlorophenylcarbamoyl)-piperazin-1-yl]-6-chloro-pyrido[3,2-d]pyrimidine] |  | IC50 [2]: 3.4 µM

Row | SMILES | IC50 [1] | further results
18 | Cc1ccc(-c2ccc3nc(N)nc(N4CCN(C(=O)COc5ccc(Cl)cc5)CC4)c3n2)cc1 [Example 445, 2-amino-4-[4-(4-chlorophenoxyacetyl)piperazin-1-yl]-6-(4-methylphenyl)pyrido-[3,2-d]pyrimidine] | 0.029 µM | 
19 | Cc1noc(C)c1-c1ccc2nc(N)nc(N3CCN(C(=O)COc4ccc(Cl)cc4)CC3)c2n1 [Example 411, 2-amino-4-[4-(4-chlorophenoxyacetyl)piperazin-1-yl]-6-(3,5-dimethylisoxazol-4-yl)pyrido-[3,2-d]pyrimidine] | 0.034 µM | 
20 | CS(=O)(=O)c1ccc(-c2ccc3nc(N)nc(N4CCN(C(=O)COc5ccc(Cl)cc5)CC4)c3n2)cc1 [Example 417, 2-amino-4-[4-(4-chlorophenoxyacetyl)piperazin-1-yl]-6-(4-(methanesulfonyl)-phenyl)pyrido-[3,2-d]pyrimidine] | 0.028 µM | 
21 | CC(C)(C)OC(=O)N1CCC(Nc2nc(N)nc3ccc(-c4ccc(F)cc4)nc23)CC1 [Example 461, 2-amino-4-[1-(tert-butoxycarbonyl)piperid-4-ylamino]-6-(4-fluorophenyl)-pyrido[3,2-d]pyrimidine] | 4 µM | 
22 | NCc1ccc(-c2ccc3nc(N)nc(N4CCN(C(=O)COc5ccc(Cl)cc5)CC4)c3n2)cc1 [Example 447, 2-amino-4-[4-(4-chlorophenoxyacetyl)piperazin-1-yl]-6-[4-(aminomethyl)phenyl]pyrido-[3,2-d]pyrimidine] | 0.4 µM | 
23 | CC(C)(C)OC(=O)N1CCC(Nc2nc(N)nc3ccc(-c4ccc(F)cc4)nc23)C1 [Example 577, 2-amino-4-[(S)-1-Boc-amino-pyrrolidin-3-yl]-6-(4-fluorophenyl)-pyrido(3,2-d)pyrimidine] | 4.4 µM | 
24 | Nc1nc(N2CCN(C(=O)OCc3ccccc3)CC2)c2nc(-c3ccc(F)cc3)ccc2n1 [Example 458, 2-amino-4-[4-(benzyloxycarbonyl)-piperazin-1-yl]-6-(4-fluorophenyl)-pyrido[3,2-d]pyrimidine] | 0.7 µM | 
25 | Nc1nc(N2CCN(C(=O)COc3ccc(Cl)cc3)CC2)c2nc(-c3cc(F)ccc3F)ccc2n1 [Example 440, 2-amino-4-[4-(4-chlorophenoxyacetyl)piperazin-1-yl]-6-(2,5-difluorophenyl)pyrido-[3,2-d]pyrimidine] | 0.07 µM | 
26 | N#CCc1ccc(-c2ccc3nc(N)nc(N4CCN(C(=O)COc5ccc(Cl)cc5)CC4)c3n2)cc1 [Example 499, 2-amino-4-[N-(4-chlorophenoxyacetyl)-piperazin-1-yl]-6-(4-cyanomethyl-phenyl)-pyrido(3,2-d)pyrimidine] | 0.011 µM | 
27 | Nc1nc(N2CCN(C(=O)COc3ccc(Cl)cc3)CC2)c2nc(-c3ccccc3F)ccc2n1 [Example 424, 2-amino-4-[4-(4-chlorophenoxyacetyl)piperazin-1-yl]-6-(2-fluorophenyl)pyrido-[3,2-d]pyrimidine] | 0.11 µM | 
28 | COc1ccc(-c2ccc3nc(N)nc(N4CCN(C(=O)COc5ccccc5)CC4)c3n2)cc1OC [Example 60, 2-amino-4-[(N-phenoxy-acetyl)-piperazin-1-yl]-6-(3,4-dimethoxyphenyl)-pyrido[3,2-d]pyrimidine] |  | IC50 [2]: 0.053 µM
29 | Cc1cccc(NC(=O)N2CCN(c3nc(N)nc4ccc(-c5c(C)cccc5C)nc34)CC2)c1 [Example 550, 2-amino-4-[(3-methylphenylcarbamoyl)-piperazin-1-yl]-6-(2,6-dimethyl-phenyl)-pyrido[3,2-d]pyrimidine] | 3.5 µM | 
30 | Nc1nc(N2CCN(CC(=O)NCCc3ccccc3)CC2)c2nc(-c3ccc(F)cc3)ccc2n1 [Example 459, 2-amino-4-[4-[2-(phenyl)ethylcarbamylmethyl]-piperazin-1-yl]-6-(4-fluorophenyl)-pyrido[3,2-f]pyrimidine] | 0.5 µM | 
31 | COc1c(C)cc(-c2ccc3nc(N)nc(N4CCN(C(=O)COc5ccc(Cl)cc5)CC4)c3n2)cc1C [Example 502, 2-amino-4-[N-(4-chlorophenoxyacetyl)-piperazin-1-yl]-6-(3,5-dimethyl-4-methoxyphenyl)-pyrido(3,2-d)pyrimidine] | 0.078 µM | 
32 | Nc1nc(N2CCN(C(=O)COc3ccc(Cl)cc3)CC2)c2nc(-c3c(F)cccc3Cl)ccc2n1 [Example 442, 2-amino-4-[4-(4-chlorophenoxyacetyl)piperazin-1-yl]-6-(2-chloro-6-fluorophenyl)-pyrido-[3,2-d]pyrimidine] | 0.3 µM | 
33 | CCOc1ccc(-c2ccc3nc(N)nc(N4CCN(C(=O)COc5ccc(Cl)cc5)CC4)c3n2)cc1Cl [Example 493, 2-amino-4-[N-(4-chlorophenoxyacetyl)-piperazin-1-yl]-6-(3-chloro-4-ethoxyphenyl)-pyrido(3,2-d)pyrimidine] | 0.057 µM | 
34 | Nc1nc(N2CCN(C(=O)COc3ccc(Cl)cc3)CC2)c2nc(-c3cccnc3)ccc2n1 [Example 409, 2-amino-4-[4-(4-chlorophenoxyacetyl)piperazin-1-yl]-6-(pyridin-3-yl)pyrido-[3,2-d]pyrimidine] | 0.005 µM | 
